Values joined by “and” are separate entries in the source; they are usually repeats but may differ in a detail not shown here. Identical values can stand only once.
How the values were obtained:
[1] = AZP drying condition evaluation (weight loss on heating); assay type: physicochemical; conditions: for Total Weight loss after 2nd Heat: cumulative; for Weight loss after 1st Heat: Trisodium Salt
Method: The following drying conditions for 2-Phospha-L-ascorbic Acid Trisodium Salt (AZP), (>98% (HPLC), Fluka, Lot#: 1322473 52607420) were tested: 90° C./24 hrs. under vacuum, 160° C./30 minutes under dry nitrogen blanket, and 200° C./30 minutes under dry nitrogen blanket. The times tested include estimating the compounding time and time for sample collection and cooling.
6 glass vials were pre-dried in a vacuum oven at 160° C. for 30 minutes and transferred to a glove box purged with dry nitrogen gas. AZP powder was weighed in each vial (see Table 1) in the glove box.
(§1) The dried AZP powder vials were sealed with Parafilm and stored under dry a nitrogen blanket until evaluation. The weight loss % was cumulative over both heating conditions. The samples under RT/N2 were stored in nitrogen box. The samples were evaluated for color change of the course of the heating conditions. Color change is an indicator of AZP degradation. […] The higher temperature and shorter time could have the same drying effects on the weight loss. […] Therefore 160° C. and 30 minutes were selected as the upper limits of the drying and processing condition

[2] = Color change as indicator of AZP degradation; assay type: physicochemical
Method: as §1
Films were prepared as follow: The platens of a compression molding instrument (Carver Laboratory Press, Model: 2696) were pre-heated to 205° C. About 3.5 grams of the composition were placed on the platens and heated for 5 minutes. Pressure was applied (about 20,000 lbs) for about 2 minutes. The heating was stopped and the platens and film were allowed to cool to RT under water cooling and continued pressure.

[3] = stated by material safety data sheet from an AZP manufacturer; cited from earlier work

## 2-Phospha-L-ascorbic Acid Trisodium Salt [AZP]
[1]; 1st 90° C./Vac 24 hours, 2nd 160° C./N2/air 30 min
  Total Weight loss after 2nd Heat: 6.25 wt %
[1]; 1st 90° C./Vac 24 hours, 2nd 200° C./N2/air 30 min
  Total Weight loss after 2nd Heat: 6.75 wt %
[1]; 1st 90° C./Vac 24 hours, 2nd RT/N2 30 min
  Total Weight loss after 2nd Heat: 4.41 wt %
[1]; 1st RT/N2 24 hours, 2nd 160° C./N2/air 30 min
  Total Weight loss after 2nd Heat: 10.06 wt %
[1]; 1st RT/N2 24 hours, 2nd 200° C./N2/air 30 min
  Total Weight loss after 2nd Heat: 8.10 wt %
[1]; 1st RT/N2 24 hours, 2nd RT/N2 30 min (control)
  Total Weight loss after 2nd Heat: 0.25 wt %
[1]; 1st heat for 24 hours 90° C./Vac
  Weight loss after 1st Heat: 8.09 wt % and 7.59 wt % and 6.43 wt %
[1]; 1st heat for 24 hours RT/N2
  Weight loss after 1st Heat: 1.18 wt % and 1.76 wt % and 1.00 wt %
[1]; as received
  Moisture content of AZP as received: up to 7.5 % by weight
[2]; sample number 6, 90° C./Vac 24 hrs then heated to 200° C.
  Color change of AZP powder (indicator of degradation): darkest yellow color
[2]; samples heated at 90° C./24 hrs.
  Color change of AZP powder (indicator of degradation): very slight yellow color
[2]; samples heated for no more than 30 minutes
  Color change of AZP powder (indicator of degradation): retained the original white color
[2]; samples that underwent 2 heat treatments
  Color change of AZP powder (indicator of degradation): slightly yellow color
[3]
  Degradation temperature of AZP: about 260 °C

— US8197838B2, “Sustained release systems of ascorbic acid phosphate” (Advanced Technologies and Regenerative Medicine, LLC., priority 2008, dated 2012)
